Experimental data taken from PubChem BioAssay AID1347409 (Pan Lab, Icahn School of Medicine at Mount Sinai, 2020).
Records with an inconclusive call do not appear. Calls of active or inactive are those of the source.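 How the source made its calls: active means EC50 at or below 10 µM; inconclusive means EC50 above 10 and up to 20 µM; inactive means EC50 above 20 µM.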

system: MV4-11 apoptosis, Annexin V flow cytometry, 48 h; assay: MV4-11 leukemia cell apoptotic death – Annexin V, flow cytometry, dose response (AID 1347409)

Structure (SMILES) | EC50
CCOc1ccc2nc3cc(NC(=O)c4ccco4)ccc3c(N)c2c1 | 1.3 µM
CCCCCCCCCOc1ccc(C#CC(=O)O)cc1 | 32.4 µM (inactive)
CCNc1ccc(Br)cc(C(=O)/C=C/c2c(Cl)cccc2Cl)c1=O | 4.4 µM
Cc1ccc2c(c1)-c1c(c(C(=O)N3CCN(c4cc(C)ccc4C)CC3)nn1C)CS2 | 68.2 µM (inactive)
COc1ccc(C=C2C(=O)N(Cc3ccco3)C(=O)N(C(C)C)C2=O)cc1 | 60 µM (inactive)
CN(CCC(=O)C=Cc1ccc(Cl)c(Cl)c1)CCc1ccc2c(c1)OCO2 | 5.2 µM
CCOc1cccc2c1N[C@@H](c1ccc(C(=O)O)cc1)[C@H]1CC=C[C@@H]21 | 113 µM (inactive)
Cc1ccc([C@@H]2Nc3c(ccc(C(=O)O)c3C)[C@@H]3C=CC[C@@H]32)cc1 | 94.8 µM (inactive)
NCCCSc1nc2c(c(=O)n1Cc1ccccc1)C1(CCCCC1)Cc1ccccc1-2 | 2.4 µM
Cc1ccc(NC(=O)c2ccc(Cl)cc2Cl)c(S(=O)(=O)O)c1 | 90.1 µM (inactive)
CCOC(=O)c1c(NC(=O)CCC(=O)O)sc(C)c1-c1ccc(CC(C)C)cc1 | 33.6 µM (inactive)
